The text below walks through data of US20230218663A1, “COMPOSITIONS AND METHODS FOR TREATING A SARS-COV-2 INFECTION” (priority 2020, published 2023).

Where two headings read alike, the source gives them in different places.

Data set [1] in a line: Ex vivo everted gut sac model. It is filed as in vitro ADME, rat. As for the experimental part:
Ex vivo everted gut sac model was performed according to a modified method (10, 11). For the preparation of everted gut sac, small intestines were rapidly isolated from rats right after their sacrificing followed by being washed several times with 0.9% saline. Duodenum was segmented of the intestine (˜4 cm) in oxygenated medium [Krebs-Henseleit solution (pH 7.4, 1.25 mM NaHCO3, pH 7.4, 5.9 mM NaCl, 23.5 μM KCl, 60 μM MgSO4, 62.5 μM CaCl2, 60 μM KH2PO4, 550 μM glucose)], gently everted, washed, slid onto a glass rod and fastened with braided silk. Duodenum was clamped at one end and filled with an aliquot of 1 mL fresh oxygenated medium, and subsequently sealed with a second clamp, resulting an everted gut sac with approximately 3 cm in length using braided silk sutures.
The everted gut sacs (n=3 per group) were dialyzed in oxygenated medium supplemented with CBS (200 μM), CBS (200 μM)+1NAC (200 μM), CBS (200 μM)+3NAC (600 μM), CBS (200 μM)+10NAC (2 mM), respectively, at 37° C. Aliquots of 50 μL samples were withdrawn from the gut sacs at different time intervals (15, 30, 45, 60 min) and equal volume of oxygenated medium was supplemented in gut sacs immediately. The length and width of each intestinal segment was measured after the final sample was taken. Bismuth content transported into the gut sacs was measured by ICP-MS as mentioned above.

Data set [2] has as its system SARS-CoV-2. The class given is cell-based. To be noted: read-out: EC50 VeroE6.
The subject of the next data set is Caco2 cells. Nature of the data set: Cell viability assay (CellTiterGlo), Caco2. The class given is cell-based, human. To be noted: 48 hrs incubation; concentration based on metal content; read-out: CC50 Caco2. Here is the method: The CellTiterGlo® luminescent assay (Promega Corporation, Madison, Wis., USA) was performed to detect the cytotoxicity of the selected compounds as previously described^39. Briefly, VeroE6 cells (4×10^4 cells per well) and Caco2 cells (4×10^4 cells per well) were incubated with different concentrations of the individual compound in 96-well plates for 48 hrs, followed by the addition of the substrate and measurement of luminance 10 min later. Ridaura and Au(PEt3)Cl were dissolved in DMSO, and the final percentage of DMSO was kept at 1% in culture medium.
(In general: Cellular ATP, detected with luciferase, serves as a proxy for viable cell number.)

Data set [3] has as its system SARS-CoV-2. As to conditions: Caco-2.

Colloidal Bismuth Subcitrate [De-Nol]: the “cumulative bismuth permeated within 60 min” value is recorded as 30.21 ng/cm2 in data set [1] (CBS 200 μM with 1 mol eq. NAC); 64.98 ng/cm2 in data set [1] (CBS 200 μM with 3 mol eq. NAC); 98.61 ng/cm2 in data set [1] (CBS 200 μM with 10 mol eq. NAC); 14.68 ng/cm2 in data set [1] (CBS 200 μM, without NAC). Besides, the EC50 with SARS-CoV-2 [2] amounted to 4.6 ± 0.4 µM. In addition, in the data set with Caco2 cells, the CC50 came to 3740 ± 125 µM. The cumulative permeated bismuth reads like this: (PBS iso-pH 1.2, in the presence of 10 mol eq. NAC) 24.91 ng/cm2; (PBS iso-pH 1.2, without NAC) 16.95 ng/cm2. Moreover, the “maximal viral load reduction in Caco2 cell culture supernatant” value with SARS-CoV-2 [3] is about 4 logs. For the same substance, in the data set on SARS-CoV-2 [3], the “maximal viral load reduction in the Caco2 cell lysate” value is reported as about 3 logs.

In general, EC50 refers to the midpoint of the concentration-response curve. Usually CC50 stands for the concentration at which the toxic effect on the cells reaches its halfway point.
